Experimental data: patent US10745433B2, “Compounds for inhibiting cancer and virus” (priority 2016, dated 2020)
pIC50: −log10 of the molar value. Entries after “also recorded” stand apart in the source; their conditions may differ. Like-named read-outs stand apart in the source and are kept apart here. Values belong to the compound of their own block, whether it stands above or below them.

Legend:
PC3 = assay: Growth inhibition assay (MTT), PC3; assay type: cell-based; conditions: Homo sapiens
Procedure: (§1) The compounds of the invention were subjected to growth inhibition assay. Cells were seeded in 96-well plastic plates and exposed to the compounds of the invention for 72 hours. Cell viability was assessed using the 3-(4,5-dimethylthiazol-2-yl)-2,5-diphenyltetrazolium bromide assay.

DU145 = assay: Growth inhibition assay (MTT), DU145; assay type: cell-based; conditions: Homo sapiens
Procedure: as §1

MKN45 = assay: Growth inhibition assay (MTT), MKN45; assay type: cell-based; conditions: Homo sapiens
Procedure: as §1

HCT116 = assay: Growth inhibition assay (MTT), HCT116; assay type: cell-based; conditions: Homo sapiens
Procedure: as §1

HT29 = assay: Growth inhibition assay (MTT), HT29; assay type: cell-based; conditions: Homo sapiens
Procedure: as §1

N87 = assay: Growth inhibition assay (MTT), N87; assay type: cell-based
Procedure: as §1

MCF-7 = assay: Growth inhibition assay (MTT), MCF-7; assay type: cell-based; conditions: Homo sapiens
Procedure: as §1

LNCap = assay: Growth inhibition assay (MTT), LNCap; assay type: cell-based; conditions: Homo sapiens
Procedure: as §1

MIAPACA = assay: Growth inhibition assay (MTT), MIAPACA; assay type: cell-based; conditions: Homo sapiens, MIA PaCa-2, 72 hours
Procedure: as §1

Panc-1 = assay: Growth inhibition assay (MTT), Panc-1; assay type: cell-based; conditions: Homo sapiens, Panc-1, Pancreatic cancer, 72 hours
Procedure: as §1

[1] = tested on: human MDA-MB-231 breast adenocarcinoma; assay: MDA-MB-231 xenograft animal model; assay type: in vivo; conditions: oral, female nude mice; for body weight: FIG. 1(B)
Text: (§2) Anti-cancer Activity Evaluation of the Compounds of the Invention (MPT0L167 and MPT0L179) Against Human MDA-MB-231 Breast Cancer in MDA-MB-231 Xenograft Animal Model and Human Colorectal Cancer HCT116 Xenograft Model […] This study utilized five groups of mice (n=7-8) bearing established human MDA-MB-231 breast adenocarcinoma with mean volumes of ˜250 mm^3.

[2] = Metabolic stability in dog liver microsomes; assay type: in vitro ADME; conditions: FIG. 3
[3] = Metabolic stability in rat liver microsomes; assay type: in vitro ADME; conditions: FIG. 3
[4] = Metabolic stability in human liver microsomes; assay type: in vitro ADME; conditions: FIG. 3
[5] = tested on: human HCT116 colorectal cancer; assay: Human colorectal cancer HCT116 xenograft model; assay type: in vivo; conditions: oral, female nude mice; for body weight: FIG. 2(B)
Text: as §2, with “HCT116 colorectal cancer” for “MDA-MB-231 breast adenocarcinoma”, “˜200” for “˜250”

[6] = tested on: Zika virus (PRVABC59 strain); assay: Zika animals study; assay type: in vivo
Procedure: The Zika sensitive female mice: ROSA, STAT1^−/− strain was used. MPT0L167 was used to pre-treat the mice for one day. 4*10^7 cells (U-87 MG human glioblastoma cell with infection with Zika virus (PRVABC59 strain)) were injection in mice. After infection, MPT0L167 was administered with 100 mg/kg to the mice by po,qd. The virus detection in serum at day 3. The concentration of virus in serum was detected by Viralplaque assays.

[7] = Pharmacokinetic study (PK), i.v. in rats; assay type: in vivo; conditions: 2 mg/kg i.v.
Procedure: 2 mg/kg of niclosamide (MPT0L166) and MPT0L167, MPT0L180 and MPT0L196 were each independently given to five rats by i.v. The blood samples were taken from the rats after 0.03 hour, 0.08 hour, 0.25 hour, 0.5 hour, 1 hour, 2 hours, 4 hours, 6 hour, 8 hours and 24 hours. LC-MS/MS was used to detect the concentration of MPT0L167 in blood.

[8] = PC-3, PC3, Prostate cancer, 72 hours, MTT, read-out: IC50
[9] = DU-145, DU145, Prostate cancer, 72 hours, MTT, read-out: IC50
[10] = MKN-45, MKN45, Gastric cancer, 72 hours, MTT, read-out: IC50
[11] = HCT-116, HCT116, Colon cancer, 72 hours, MTT, read-out: IC50
[12] = HT-29, HT29, Colon cancer, 72 hours, MTT, read-out: IC50
[13] = N87, Gastric cancer, 72 hours, MTT, read-out: IC50
[14] = MCF7, MCF-7, Breast cancer, 72 hours, MTT, read-out: IC50
[15] = LNCap, Prostate cancer, 72 hours, MTT, read-out: IC50

pIC50 (PC3; [8]): < 4.60
pIC50 (DU145; [9]): < 4.60
pIC50 (MKN45; [10]): < 4.60
melting point: 195.5 to 197.2 °C
pIC50 (HCT116; [11]): < 4.30
pIC50 (HT29; [12]): < 4.30
pIC50 (MCF-7; [14]): < 4.60
pIC50 (LNCap; [15]): 5.61
SMILES: CC(=O)OCOc1ccc(Cl)cc1C(=O)Nc1ccc([N+](=O)[O-])cc1Cl [MPT0L180, Acetic acid 4-chloro-2-(2-chloro-4-nitro-phenylcarbamoyl)-phenoxymethyl ester]
pIC50 (N87; [13]): < 4.60

SMILES: O=C(Nc1ccc([N+](=O)[O-])cc1Cl)c1cc(Cl)ccc1OC(=O)N1CCC(N2CCCCC2)CC1 [MPT0L196, [1,4′]Bipiperidinyl-1′-carboxylic acid 4-chloro-2-(2-chloro-4-nitro-phenylcarbamoyl)-phenyl ester]
pIC50 (PC3; PC-3, 72 h): < 4.60
pIC50 (DU145; DU-145, 72 h): < 4.60
pIC50 (MKN45; MKN-45, 72 h): < 4.60
melting point: 216.3 to 217.9 °C
pIC50 (HCT116; HCT-116, 72 h): < 4.30
pIC50 (HT29; HT-29, 72 h): < 4.30
pIC50 (N87; 72 h): < 4.60
pIC50 (MCF-7; MCF7, 72 h): < 4.60
pIC50 (LNCap; LNCaP, 72 h): < 4.60

pIC50 (PC3; [8]): 5.98
pIC50 (DU145; [9]): < 5.00
pIC50 (MKN45; [10]): < 4.60
pIC50 (MIAPACA): 5.93
pIC50 (HCT116; [11]): 5.25
pIC50 (HT29; [12]): 4.51
pIC50 (Panc-1): 6.37
pIC50 (MCF-7; [14]): 5.43
pIC50 (LNCap; [15]): 6.01
SMILES: O=C(Nc1ccc([N+](=O)[O-])cc1Cl)c1cc(Cl)ccc1O [#166, niclosamide, reference compound]
pIC50 (N87; [13]): 6.85

SMILES: O=C(Nc1ccc([N+](=O)[O-])cc1Cl)c1cc(Cl)ccc1OC1OC(CO)C(O)C(O)C1O (centres unmarked) [MPT0L167, 5-Chloro-N-(2-chloro-4-nitro-phenyl)-2-(3,4,5-trihydroxy-6-hydroxymethyl-tetrahydro-pyran-2-yloxy)-benzamide]
tumor volume ([1]; FIG. 1(A)): significantly reduces tumor volume
body weight [1]: does not significantly reduce body weight
body weight ([1]; listed as MPLOL167): did not exhibit significant change
pIC50 (PC3; [8]): < 4.60
pIC50 (DU145; [9]): < 4.60
metabolic stability compared with MPT0L166 [2]: more stable than MPT0L166
pIC50 (MKN45; [10]): < 4.60
metabolic stability compared with MPT0L166 [3]: more stable than MPT0L166
melting point: 212.6 to 213.2 °C
pIC50 (HCT116; [11]): < 4.30
pIC50 (HT29; [12]): < 4.30
metabolic stability compared with MPT0L166 [4]: more stable than MPT0L166
tumor volume ([5]; FIG. 2(A)): significantly reduces tumor volume
body weight [5]: does not significantly reduce body weight
body weight ([5]; listed as MPLOL167): did not exhibit significant change
pIC50 (N87; [13]): < 4.60
concentration of virus in serum (Viralplaque assays) ([6]; female ROSA, STAT1−/− mice, 100 mg/kg po,qd, serum at day 3, FIG. 4(A)): inhibition of Zika virus infection; also recorded: significantly inhibits Zika virua growth
body weight ([6]; mouse, in vivo, po, 100 mg/kg): does not significant reduce body weight; also recorded: not significantly changed
half-life in vivo compared with niclosamide (MPT0L166) [7]: longer half-life than MPT0L166
AUC % Extrap obs ([7]; mean): 1.15%
AUC(0-inf) ([7]; rat, blood, iv, mean): 0.587 µg·h/mL
AUC(0-t) ([7]; rat, blood, iv, mean): 0.58 µg·h/mL
Cmax ([7]; rat, blood, iv, mean): 3.88 µg/mL
MRT inf ([7]; rat, blood, iv, mean): 1.4 h
Tmax ([7]; rat, blood, iv, mean): 1.8 min
half-life ([7]; rat, blood, iv, mean): 7.38 h
clearance ([7]; rat, blood, iv, mean, read-out: CL obs (converted)): 3.55 L/h/kg
Vd ([7]; rat, blood, iv, mean, read-out: VZ obs): 37.3 L/kg
pIC50 (MCF-7; [14]): < 4.60
pIC50 (LNCap; [15]): < 4.60

melting point: 172.4 to 174 °C
SMILES: O=C(Nc1ccc([N+](=O)[O-])c(C(F)(F)F)c1)c1cc(Cl)ccc1O
